Data published in PMC4503722, “Novel Phenotypic Outcomes Identified for a Public Collection of Approved Drugs from a Publicly Accessible Panel of Assays” (PLoS ONE, 2015).

The compounds below were run on HCT116 cells treated with a GSK3β inhibitor (assay: cells). Conditions: Homo sapiens, HCT-116, read-out: GSK3b inh pretreated_Viability ATP HCT116.
Format: cell-based

Compound	IC50 [µM]
Cn1cnc([N+](=O)[O-])c1Sc1ncnc2nc[nH]c12 [Azathioprine]	0.623
O=c1c(-c2ccccc2)c1-c1ccccc1 [Diphenylcyclopropenone]	7.71

Same assay, conditions: Homo sapiens, HCT-116; GSK3b inhibitor pretreated; read-out: GSK3b inh pretreated_Viability ATP HCT116

Compound	IC50 [µM]
COc1ccc2cc1Oc1ccc(cc1)C[C@H]1c3c(cc4c(c3Oc3cc5c(cc3OC)CCN(C)[C@@H]5C2)OCO4)CCN1C [Cepharanthine]	3.57

Each compound was assayed on HT-29 (assay: cells). Conditions: Homo sapiens, HT-29, read-out: Basal_Viability ATP HT-29.
Format: cell-based

Compound	IC50 [µM]
Cn1cnc([N+](=O)[O-])c1Sc1ncnc2nc[nH]c12 [Azathioprine]	> 20
O=c1c(-c2ccccc2)c1-c1ccccc1 [Diphenylcyclopropenone]	> 20

Same assay, conditions: Homo sapiens, HT-29; read-out: Basal_Viability ATP HT-29

Compound	IC50 [µM]
COc1ccc2cc1Oc1ccc(cc1)C[C@H]1c3c(cc4c(c3Oc3cc5c(cc3OC)CCN(C)[C@@H]5C2)OCO4)CCN1C [Cepharanthine]	1.36

These compounds were tested on endothelial tube formation in co-cultures of ECFCs and ADSCs treated with VEGF (assay: cells). Conditions: Homo sapiens, IC50 / EC50; endothelial tube area, ADSC/ECFC co-culture; read-out: Anti-Angiogenesis.
Format: cell-based, human

Compound	IC50 [µM]
COc1ccc2cc1Oc1ccc(cc1)C[C@H]1c3c(cc4c(c3Oc3cc5c(cc3OC)CCN(C)[C@@H]5C2)OCO4)CCN1C [Cepharanthine]	3.02

Same assay, conditions: Homo sapiens, read-out: Anti-Angiogenesis

Compound	IC50 [µM]
Cn1cnc([N+](=O)[O-])c1Sc1ncnc2nc[nH]c12 [Azathioprine]	> 10
O=c1c(-c2ccccc2)c1-c1ccccc1 [Diphenylcyclopropenone]	3.84

The compounds below were run on HeLa cells (assay: cells). Conditions: Homo sapiens, HeLa, IC50 / EC50; HeLa; read-out: CellCycle G2/M.
Format: cell-based

Compound	EC50 [µM]
COc1ccc2cc1Oc1ccc(cc1)C[C@H]1c3c(cc4c(c3Oc3cc5c(cc3OC)CCN(C)[C@@H]5C2)OCO4)CCN1C [Cepharanthine]	> 10

Same assay, conditions: Homo sapiens, HeLa, read-out: CellCycle G2/M

Compound	EC50 [µM]
Cn1cnc([N+](=O)[O-])c1Sc1ncnc2nc[nH]c12 [Azathioprine]	> 10
O=c1c(-c2ccccc2)c1-c1ccccc1 [Diphenylcyclopropenone]	> 10

The compounds below were run on Colo320 (assay: cells). Conditions: Homo sapiens, COLO 320, read-out: Basal_Viability ATP Colo 320.
Format: cell-based

Compound	IC50 [µM]
Cn1cnc([N+](=O)[O-])c1Sc1ncnc2nc[nH]c12 [Azathioprine]	10.3
O=c1c(-c2ccccc2)c1-c1ccccc1 [Diphenylcyclopropenone]	3.1

Same assay, conditions: Homo sapiens, COLO 320; read-out: Basal_Viability ATP Colo 320

Compound	IC50 [µM]
COc1ccc2cc1Oc1ccc(cc1)C[C@H]1c3c(cc4c(c3Oc3cc5c(cc3OC)CCN(C)[C@@H]5C2)OCO4)CCN1C [Cepharanthine]	1.43

The compounds below were run on nuclear β-catenin in C2C12 cells (assay: cells). Conditions: Mus musculus, C2C12, IC50 / EC50; C2C12 beta-catenin translocation; read-out: Wnt Pathway.
Format: cell-based

Compound	EC50 [µM]
COc1ccc2cc1Oc1ccc(cc1)C[C@H]1c3c(cc4c(c3Oc3cc5c(cc3OC)CCN(C)[C@@H]5C2)OCO4)CCN1C [Cepharanthine]	2.05

Same assay, conditions: Mus musculus, C2C12, read-out: Wnt Pathway

Compound	EC50 [µM]
Cn1cnc([N+](=O)[O-])c1Sc1ncnc2nc[nH]c12 [Azathioprine]	> 10
O=c1c(-c2ccccc2)c1-c1ccccc1 [Diphenylcyclopropenone]	3.62

The compounds below were run on INS-1E cells (assay: cells). Conditions: Rattus norvegicus, INS-1E, read-out: Insulin Secretion.
Format: cell-based, rat

Compound	EC50 [µM]
Cn1cnc([N+](=O)[O-])c1Sc1ncnc2nc[nH]c12 [Azathioprine]	> 10
O=c1c(-c2ccccc2)c1-c1ccccc1 [Diphenylcyclopropenone]	> 10

Same assay, conditions: Rattus norvegicus; IC50 / EC50; INS-1E; read-out: Insulin Secretion

Compound	EC50 [µM]
COc1ccc2cc1Oc1ccc(cc1)C[C@H]1c3c(cc4c(c3Oc3cc5c(cc3OC)CCN(C)[C@@H]5C2)OCO4)CCN1C [Cepharanthine]	> 10

What follows are compounds tested against T1, hJAK2 (Homo sapiens, UniProt O60674) (assay: Cerep LANCE kinase assay hJAK2 (S1 assay 33)). Conditions: not given.
T1 construct: purchased Cerep (LANCE kinase assay platform, contract assay)
T1 sequence (O60674 whole entry): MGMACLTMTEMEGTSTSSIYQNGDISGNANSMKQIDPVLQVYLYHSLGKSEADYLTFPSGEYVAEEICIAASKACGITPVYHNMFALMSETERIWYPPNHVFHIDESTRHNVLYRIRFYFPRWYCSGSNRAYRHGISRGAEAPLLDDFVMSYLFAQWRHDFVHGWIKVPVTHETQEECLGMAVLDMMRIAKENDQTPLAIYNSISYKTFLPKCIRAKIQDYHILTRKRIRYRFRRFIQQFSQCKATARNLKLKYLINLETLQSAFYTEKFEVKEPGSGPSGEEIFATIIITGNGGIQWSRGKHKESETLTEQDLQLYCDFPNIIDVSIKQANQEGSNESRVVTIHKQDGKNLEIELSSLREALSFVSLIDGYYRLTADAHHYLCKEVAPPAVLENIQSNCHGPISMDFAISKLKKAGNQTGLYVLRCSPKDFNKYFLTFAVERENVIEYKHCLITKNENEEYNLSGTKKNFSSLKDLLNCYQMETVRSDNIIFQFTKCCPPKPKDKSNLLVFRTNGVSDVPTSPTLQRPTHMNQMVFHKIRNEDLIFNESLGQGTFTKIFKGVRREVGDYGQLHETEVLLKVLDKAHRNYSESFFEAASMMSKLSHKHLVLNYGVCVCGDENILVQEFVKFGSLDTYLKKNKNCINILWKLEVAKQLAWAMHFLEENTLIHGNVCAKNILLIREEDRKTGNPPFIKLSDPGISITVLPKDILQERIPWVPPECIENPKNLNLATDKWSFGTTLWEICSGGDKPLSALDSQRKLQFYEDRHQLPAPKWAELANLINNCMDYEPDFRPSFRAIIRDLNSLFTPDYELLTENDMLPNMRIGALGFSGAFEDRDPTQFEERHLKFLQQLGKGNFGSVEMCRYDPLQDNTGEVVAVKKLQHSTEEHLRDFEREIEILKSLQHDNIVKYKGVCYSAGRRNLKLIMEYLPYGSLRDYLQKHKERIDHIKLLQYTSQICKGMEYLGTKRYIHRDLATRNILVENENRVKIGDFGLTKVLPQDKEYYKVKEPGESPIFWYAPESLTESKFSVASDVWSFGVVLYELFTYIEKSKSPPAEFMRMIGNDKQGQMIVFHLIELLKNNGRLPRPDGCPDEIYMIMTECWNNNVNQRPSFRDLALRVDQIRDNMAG
Format: biochemical

Compound	IC50 [µM]
Cn1cnc([N+](=O)[O-])c1Sc1ncnc2nc[nH]c12 [Azathioprine]	> 20

Same assay, conditions: kinase assay; read-out: JAK2

Compound	IC50 [µM]
O=c1c(-c2ccccc2)c1-c1ccccc1 [Diphenylcyclopropenone]	> 20

Same assay, conditions: read-out: JAK2

Compound	IC50 [µM]
COc1ccc2cc1Oc1ccc(cc1)C[C@H]1c3c(cc4c(c3Oc3cc5c(cc3OC)CCN(C)[C@@H]5C2)OCO4)CCN1C [Cepharanthine]	> 20

Each compound was assayed on RKO (assay: cells). Conditions: Homo sapiens, RKO, read-out: Basal_Viability ATP RKO.
Format: cell-based

Compound	IC50 [µM]
Cn1cnc([N+](=O)[O-])c1Sc1ncnc2nc[nH]c12 [Azathioprine]	2.66
O=c1c(-c2ccccc2)c1-c1ccccc1 [Diphenylcyclopropenone]	> 20

Same assay, conditions: Homo sapiens, RKO; read-out: Basal_Viability ATP RKO

Compound	IC50 [µM]
COc1ccc2cc1Oc1ccc(cc1)C[C@H]1c3c(cc4c(c3Oc3cc5c(cc3OC)CCN(C)[C@@H]5C2)OCO4)CCN1C [Cepharanthine]	3.79

The compounds below were run on SW480 (assay: cells). Conditions: Homo sapiens, SW480, basal; read-out: Basal_Viability ATP SW480.
Format: cell-based

Compound	IC50 [µM]
COc1ccc2cc1Oc1ccc(cc1)C[C@H]1c3c(cc4c(c3Oc3cc5c(cc3OC)CCN(C)[C@@H]5C2)OCO4)CCN1C [Cepharanthine]	0.308

Same assay, conditions: Homo sapiens, SW480, read-out: Basal_Viability ATP SW480

Compound	IC50 [µM]
Cn1cnc([N+](=O)[O-])c1Sc1ncnc2nc[nH]c12 [Azathioprine]	9.44
O=c1c(-c2ccccc2)c1-c1ccccc1 [Diphenylcyclopropenone]	> 20

What follows are compounds tested against T2, hGSK3b (Homo sapiens, UniProt P49841) (assay: Cerep LANCE kinase assay hGSK3b (S1 assay 34)). Conditions: not given.
T2 construct: purchased Cerep (LANCE kinase assay platform, contract assay)
T2 sequence (P49841 whole entry): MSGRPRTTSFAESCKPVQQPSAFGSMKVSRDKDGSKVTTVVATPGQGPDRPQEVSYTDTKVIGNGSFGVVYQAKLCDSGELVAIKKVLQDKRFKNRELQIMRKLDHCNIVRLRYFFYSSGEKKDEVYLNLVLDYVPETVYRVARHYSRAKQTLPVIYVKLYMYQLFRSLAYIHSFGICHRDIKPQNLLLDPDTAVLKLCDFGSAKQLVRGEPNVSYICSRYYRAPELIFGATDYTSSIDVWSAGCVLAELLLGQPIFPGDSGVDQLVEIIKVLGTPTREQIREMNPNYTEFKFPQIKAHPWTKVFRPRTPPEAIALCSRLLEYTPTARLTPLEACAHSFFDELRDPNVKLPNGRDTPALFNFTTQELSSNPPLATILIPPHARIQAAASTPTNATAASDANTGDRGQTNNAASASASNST
Format: biochemical

Compound	IC50 [µM]
Cn1cnc([N+](=O)[O-])c1Sc1ncnc2nc[nH]c12 [Azathioprine]	> 20

Same assay, conditions: kinase assay; read-out: GSK3b

Compound	IC50 [µM]
O=c1c(-c2ccccc2)c1-c1ccccc1 [Diphenylcyclopropenone]	> 20

Same assay, conditions: read-out: GSK3b

Compound	IC50 [µM]
COc1ccc2cc1Oc1ccc(cc1)C[C@H]1c3c(cc4c(c3Oc3cc5c(cc3OC)CCN(C)[C@@H]5C2)OCO4)CCN1C [Cepharanthine]	> 20

These compounds were tested on HCT116 (assay: cells). Conditions: Homo sapiens, HCT-116, read-out: Basal_Viability ATP HCT116.
Format: cell-based

Compound	IC50 [µM]
COc1ccc2cc1Oc1ccc(cc1)C[C@H]1c3c(cc4c(c3Oc3cc5c(cc3OC)CCN(C)[C@@H]5C2)OCO4)CCN1C [Cepharanthine]	9.54
Cn1cnc([N+](=O)[O-])c1Sc1ncnc2nc[nH]c12 [Azathioprine]	0.207
O=c1c(-c2ccccc2)c1-c1ccccc1 [Diphenylcyclopropenone]	> 20

The compounds below were run against T3, hp70S6K1 (RPS6KB1) (Homo sapiens, UniProt P23443) (assay: Cerep LANCE kinase assay hp70S6K1 (S1 assay 31)). Conditions: not given.
T3 construct: purchased Cerep (LANCE kinase assay platform, contract assay)
T3 sequence (P23443 whole entry): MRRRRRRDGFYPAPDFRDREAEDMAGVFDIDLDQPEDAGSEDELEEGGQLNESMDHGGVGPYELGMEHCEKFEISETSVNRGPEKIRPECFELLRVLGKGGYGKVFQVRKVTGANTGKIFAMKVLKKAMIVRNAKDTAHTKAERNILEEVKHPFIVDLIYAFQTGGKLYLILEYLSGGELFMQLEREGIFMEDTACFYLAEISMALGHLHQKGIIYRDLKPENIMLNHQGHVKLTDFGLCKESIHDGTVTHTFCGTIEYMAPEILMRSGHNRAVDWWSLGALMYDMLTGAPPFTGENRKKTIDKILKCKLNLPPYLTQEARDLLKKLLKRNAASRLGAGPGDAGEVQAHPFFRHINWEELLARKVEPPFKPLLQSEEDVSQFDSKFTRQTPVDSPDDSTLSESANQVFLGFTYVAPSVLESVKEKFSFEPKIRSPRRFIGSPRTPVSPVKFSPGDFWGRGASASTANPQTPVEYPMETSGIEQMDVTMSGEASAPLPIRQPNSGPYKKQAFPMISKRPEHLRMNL
Format: biochemical

Compound	IC50 [µM]
Cn1cnc([N+](=O)[O-])c1Sc1ncnc2nc[nH]c12 [Azathioprine]	> 20

Same assay, conditions: kinase assay; read-out: p70S6K1

Compound	IC50 [µM]
O=c1c(-c2ccccc2)c1-c1ccccc1 [Diphenylcyclopropenone]	> 20

Same assay, conditions: read-out: p70S6K1

Compound	IC50 [µM]
COc1ccc2cc1Oc1ccc(cc1)C[C@H]1c3c(cc4c(c3Oc3cc5c(cc3OC)CCN(C)[C@@H]5C2)OCO4)CCN1C [Cepharanthine]	> 20

The compounds below were run on SNU-C1 (assay: cells). Conditions: Homo sapiens, SNU-C1, read-out: Basal_Viability ATP SNU-C1.
Format: cell-based

Compound	IC50 [µM]
COc1ccc2cc1Oc1ccc(cc1)C[C@H]1c3c(cc4c(c3Oc3cc5c(cc3OC)CCN(C)[C@@H]5C2)OCO4)CCN1C [Cepharanthine]	7.48
Cn1cnc([N+](=O)[O-])c1Sc1ncnc2nc[nH]c12 [Azathioprine]	> 20
O=c1c(-c2ccccc2)c1-c1ccccc1 [Diphenylcyclopropenone]	> 20

These compounds were tested on NCI-H716 cells (assay: cells). Conditions: Homo sapiens, NCI-H716, read-out: GLP 1 Secretion.
Format: cell-based, Human

Compound	EC50 [µM]
Cn1cnc([N+](=O)[O-])c1Sc1ncnc2nc[nH]c12 [Azathioprine]	> 10
O=c1c(-c2ccccc2)c1-c1ccccc1 [Diphenylcyclopropenone]	> 10

Same assay, conditions: Homo sapiens; IC50 / EC50; NCI-H716; read-out: GLP 1 Secretion

Compound	EC50 [µM]
COc1ccc2cc1Oc1ccc(cc1)C[C@H]1c3c(cc4c(c3Oc3cc5c(cc3OC)CCN(C)[C@@H]5C2)OCO4)CCN1C [Cepharanthine]	> 10

Each compound was assayed against T4, hKDR (Homo sapiens, UniProt P35968) (assay: Cerep LANCE kinase assay hKDR (S1 assay 32)). Conditions: not given.
T4 construct: purchased Cerep (LANCE kinase assay platform, contract assay)
T4 sequence (P35968 20-1356): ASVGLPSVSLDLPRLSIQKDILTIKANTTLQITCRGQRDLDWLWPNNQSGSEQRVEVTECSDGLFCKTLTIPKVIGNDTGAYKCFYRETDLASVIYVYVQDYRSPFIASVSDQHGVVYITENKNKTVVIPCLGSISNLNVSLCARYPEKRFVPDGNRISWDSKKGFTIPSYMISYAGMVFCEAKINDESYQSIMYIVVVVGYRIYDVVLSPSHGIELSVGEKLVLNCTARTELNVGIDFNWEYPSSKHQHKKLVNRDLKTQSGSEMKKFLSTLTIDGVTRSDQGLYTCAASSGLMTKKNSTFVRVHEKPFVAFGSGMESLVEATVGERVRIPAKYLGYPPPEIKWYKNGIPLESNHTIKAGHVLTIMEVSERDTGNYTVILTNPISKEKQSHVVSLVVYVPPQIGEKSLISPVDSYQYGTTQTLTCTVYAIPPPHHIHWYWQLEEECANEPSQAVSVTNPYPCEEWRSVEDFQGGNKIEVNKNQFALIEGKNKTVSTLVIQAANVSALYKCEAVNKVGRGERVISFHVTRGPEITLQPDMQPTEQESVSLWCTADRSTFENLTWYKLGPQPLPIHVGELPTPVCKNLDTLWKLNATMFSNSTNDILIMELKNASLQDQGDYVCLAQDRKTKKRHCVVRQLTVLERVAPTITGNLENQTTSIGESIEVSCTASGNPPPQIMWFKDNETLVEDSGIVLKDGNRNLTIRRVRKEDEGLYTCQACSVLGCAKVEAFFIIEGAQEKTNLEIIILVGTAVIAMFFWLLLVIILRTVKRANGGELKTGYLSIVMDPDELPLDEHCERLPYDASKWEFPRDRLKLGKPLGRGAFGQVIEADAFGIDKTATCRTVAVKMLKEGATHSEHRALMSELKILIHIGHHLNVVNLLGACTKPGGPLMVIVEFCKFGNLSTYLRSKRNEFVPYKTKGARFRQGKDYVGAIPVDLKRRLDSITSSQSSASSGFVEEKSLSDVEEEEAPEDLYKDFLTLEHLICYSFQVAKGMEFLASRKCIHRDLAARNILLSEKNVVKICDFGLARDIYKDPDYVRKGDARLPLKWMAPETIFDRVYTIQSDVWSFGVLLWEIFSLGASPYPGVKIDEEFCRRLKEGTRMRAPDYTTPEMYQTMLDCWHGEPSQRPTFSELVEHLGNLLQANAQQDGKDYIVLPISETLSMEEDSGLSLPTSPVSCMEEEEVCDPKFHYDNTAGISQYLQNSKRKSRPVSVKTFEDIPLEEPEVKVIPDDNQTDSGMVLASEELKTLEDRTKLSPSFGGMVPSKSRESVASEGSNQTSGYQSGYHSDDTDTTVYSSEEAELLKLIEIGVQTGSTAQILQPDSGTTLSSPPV
Format: biochemical

Compound	IC50 [µM]
Cn1cnc([N+](=O)[O-])c1Sc1ncnc2nc[nH]c12 [Azathioprine]	> 20

Same assay, conditions: kinase assay; read-out: KDR

Compound	IC50 [µM]
O=c1c(-c2ccccc2)c1-c1ccccc1 [Diphenylcyclopropenone]	> 20

Same assay, conditions: read-out: KDR

Compound	IC50 [µM]
COc1ccc2cc1Oc1ccc(cc1)C[C@H]1c3c(cc4c(c3Oc3cc5c(cc3OC)CCN(C)[C@@H]5C2)OCO4)CCN1C [Cepharanthine]	> 20

These compounds were tested against T5, hFLT3 (Homo sapiens, UniProt P36888) (assay: Cerep LANCE kinase assay hFLT3 (S1 assay 35)). Conditions: not given.
T5 construct: purchased Cerep (LANCE kinase assay platform, contract assay)
T5 sequence (P36888 27-993): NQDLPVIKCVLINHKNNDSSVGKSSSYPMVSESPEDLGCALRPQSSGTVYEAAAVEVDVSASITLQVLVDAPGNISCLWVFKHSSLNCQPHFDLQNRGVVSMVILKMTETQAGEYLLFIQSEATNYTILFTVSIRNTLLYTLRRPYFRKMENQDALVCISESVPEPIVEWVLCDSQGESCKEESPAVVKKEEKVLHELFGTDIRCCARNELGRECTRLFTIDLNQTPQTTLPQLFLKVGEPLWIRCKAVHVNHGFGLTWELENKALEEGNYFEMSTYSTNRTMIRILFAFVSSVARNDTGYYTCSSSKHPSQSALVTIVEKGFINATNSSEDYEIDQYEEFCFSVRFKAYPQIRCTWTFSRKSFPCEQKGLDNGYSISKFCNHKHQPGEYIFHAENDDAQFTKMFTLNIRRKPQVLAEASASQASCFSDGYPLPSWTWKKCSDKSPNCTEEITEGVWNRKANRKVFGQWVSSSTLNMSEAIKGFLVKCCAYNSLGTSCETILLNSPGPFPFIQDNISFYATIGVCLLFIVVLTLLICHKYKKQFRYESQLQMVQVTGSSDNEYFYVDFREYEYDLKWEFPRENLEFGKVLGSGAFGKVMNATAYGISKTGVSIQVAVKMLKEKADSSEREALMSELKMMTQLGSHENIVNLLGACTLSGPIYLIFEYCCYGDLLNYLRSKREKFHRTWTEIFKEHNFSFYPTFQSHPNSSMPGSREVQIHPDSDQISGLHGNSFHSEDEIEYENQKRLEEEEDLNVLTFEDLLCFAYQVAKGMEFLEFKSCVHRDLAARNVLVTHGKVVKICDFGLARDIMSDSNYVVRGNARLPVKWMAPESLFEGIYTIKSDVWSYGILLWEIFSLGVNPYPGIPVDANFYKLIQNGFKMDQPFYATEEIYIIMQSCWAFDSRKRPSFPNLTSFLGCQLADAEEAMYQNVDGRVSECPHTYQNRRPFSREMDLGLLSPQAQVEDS
Format: biochemical

Compound	IC50 [µM]
Cn1cnc([N+](=O)[O-])c1Sc1ncnc2nc[nH]c12 [Azathioprine]	> 20

Same assay, conditions: kinase assay; read-out: FLT3

Compound	IC50 [µM]
O=c1c(-c2ccccc2)c1-c1ccccc1 [Diphenylcyclopropenone]	> 20

Same assay, conditions: read-out: FLT3

Compound	IC50 [µM]
COc1ccc2cc1Oc1ccc(cc1)C[C@H]1c3c(cc4c(c3Oc3cc5c(cc3OC)CCN(C)[C@@H]5C2)OCO4)CCN1C [Cepharanthine]	> 20

These compounds were tested on DLD-1 (assay: cells). Conditions: Homo sapiens, DLD-1, read-out: Basal_Viability ATP DLD-1.
Format: cell-based

Compound	IC50 [µM]
COc1ccc2cc1Oc1ccc(cc1)C[C@H]1c3c(cc4c(c3Oc3cc5c(cc3OC)CCN(C)[C@@H]5C2)OCO4)CCN1C [Cepharanthine]	12.4
Cn1cnc([N+](=O)[O-])c1Sc1ncnc2nc[nH]c12 [Azathioprine]	0.364
O=c1c(-c2ccccc2)c1-c1ccccc1 [Diphenylcyclopropenone]	4.21
